Oligonucleotides are written 5' to 3', each unit as a sugar letter and its base; * is a phosphorothioate linkage, no mark a phosphodiester; rarer units and linkages stand in square brackets, end groups in braces. Plain capitals give the bases only. e = 2'-O-(2-methoxyethyl) (MOE); [5mC] = 5-methylcytosine; d = 2'-deoxy (DNA)
Legend:
[1] = tested on: mouse glucose-6-phosphatase translocase mRNA; assay: Antisense inhibition of mouse glucose-6-phosphatase translocase mRNA in primary mouse hepatocytes, 150 nM, LIPOFECTIN (Table 22); type: cell-based; conditions: real-time PCR
Procedure: Primary mouse hepatocytes were prepared from CD-1 mice purchased from Charles River Labs. Primary mouse hepatocytes were routinely cultured in Hepatocyte Attachment Media supplemented with 10% fetal bovine serum (Invitrogen Life Technologies, Carlsbad, Calif.), 250 nM dexamethasone, and 10 nM bovine insulin (Sigma-Aldrich, St. Louis, Mo.). Cells were seeded into 96-well plates (Falcon-Primaria #353872, BD Biosciences, Bedford, Mass.) at a density of approximately 4,000-6,000 cells/well for use in oligomeric compound transfection experiments.
(§1) When cells reached 65-75% confluency, they were treated with oligonucleotide. Oligonucleotide was mixed with LIPOFECTIN™ Invitrogen Life Technologies, Carlsbad, Calif.) in Opti-MEM™-1 reduced serum medium (Invitrogen Life Technologies, Carlsbad, Calif.) to achieve the desired concentration of oligonucleotide and a LIPOFECTIN™ concentration of 2.5 or 3 μg/mL per 100 nM oligonucleotide. This transfection mixture was incubated at room temperature for approximately 0.5 hours. For cells grown in 96-well plates, wells were washed once with 100 μL OPTI-MEM™-1 and then treated with 130 μL of the transfection mixture. Cells grown in 24-well plates or other standard tissue culture plates are treated similarly, using appropriate volumes of medium and oligonucleotide. Cells are treated and data are obtained in duplicate or triplicate. After approximately 4-7 hours of treatment at 37° C., the medium containing the transfection mixture was replaced with fresh culture medium. Cells were harvested 16-24 hours after oligonucleotide treatment.
(§2) Quantitation of glucose 6-phosphatase translocase mRNA levels was accomplished by real-time quantitative PCR using the ABI PRISM™ 7600, 7700, or 7900 Sequence Detection System (PE-Applied Biosystems, Foster City, Calif.) according to manufacturer's instructions.
(§3) Prior to quantitative PCR analysis, primer-probe sets specific to the target gene being measured were evaluated for their ability to be “multiplexed” with a GAPDH amplification reaction. After isolation the RNA is subjected to sequential reverse transcriptase (RT) reaction and real-time PCR, both of which are performed in the same well. RT and PCR reagents were obtained from Invitrogen Life Technologies (Carlsbad, Calif.). […] The RT reaction was carried out by incubation for 30 minutes at 48° C. Following a 10 minute incubation at 95° C. to activate the PLATINUM® Taq, 40 cycles of a two-step PCR protocol were carried out: 95° C. for 15 seconds (denaturation) followed by 60° C. for 1.5 minutes (annealing/extension).
(§4) Gene target quantities obtained by RT, real-time PCR were normalized using either the expression level of GAPDH, a gene whose expression is constant, or by quantifying total RNA using RiboGreen™ (Molecular Probes, Inc. Eugene, Oreg.). GAPDH expression was quantified by RT, real-time PCR, by being run simultaneously with the target, multiplexing, or separately. Total RNA was quantified using RiboGreen™ RNA quantification reagent (Molecular Probes, Inc. Eugene, Oreg.).
A series of oligomeric compounds was designed to target different regions of mouse glucose-6-phosphatase translocase, using published sequences cited in Table 1. All compounds in Table 22 are chimeric oligonucleotides (“gapmers”) 20 nucleotides in length, composed of a central “gap” region consisting of 10 2′-deoxynucleotides, which is flanked on both sides (5′ and 3′) by five-nucleotide “wings”. The wings are composed of 2′-O-(2-methoxyethyl) nucleotides, also known as 2′-MOE nucleotides. The internucleoside (backbone) linkages are phosphorothioate throughout the oligonucleotide. All cytidine residues are 5-methylcytidines. The compounds were analyzed for their effect on gene target mRNA levels by quantitative real-time PCR as described in other examples herein, using the following primer-probe set designed to hybridize to mouse glucose-6-phosphatase translocase: • forward primer: […]

[2] = tested on: human glucose-6-phosphatase translocase mRNA; assay: Antisense inhibition of human glucose-6-phosphatase translocase mRNA in HepG2 cells (Table 11); type: cell-based; set-up: concentration or dose not given beside the values; conditions: LIPOFECTIN, mRNA by real-time PCR
Procedure: The human hepatoblastoma cell line HepG2 was obtained from the American Type Culture Collection (Manassas, Va.). HepG2 cells were routinely cultured in Eagle's MEM supplemented with 10% fetal bovine serum, 1 mM non-essential amino acids, and 1 mM sodium pyruvate (Invitrogen Life Technologies, Carlsbad, Calif.). Cells were routinely passaged by trypsinization and dilution when they reached approximately 90% confluence. Multiwell culture plates are prepared for cell culture by coating with a 1:100 dilution of type 1 rat tail collagen (BD Biosciences, Bedford, Mass.) in phosphate-buffered saline. The collagen-containing plates were incubated at 37° C. for approximately 1 hour, after which the collagen was removed and the wells were washed twice with phosphate-buffered saline. Cells were seeded into 96-well plates (Falcon-Primaria #353872, BD Biosciences, Bedford, Mass.) at a density of approximately 8,000 cells/well for use in oligomeric compound transfection experiments.
as §1, §2, §3, §4
A series of oligomeric compounds was designed to target different regions of human glucose-6-phosphatase translocase, using published sequences cited in Table 1. All compounds in Table 4 are chimeric oligonucleotides (“gapmers”) 20 nucleotides in length, composed of a central “gap” region consisting of 10 2′-deoxynucleotides, which is flanked on both sides (5′ and 3′) by five-nucleotide “wings”. The wings are composed of 2′-O-(2-methoxyethyl) nucleotides, also known as 2′-MOE nucleotides. […]

Row | Sequence | % Inhib of mouse glucose-6-phosphatase translocase mRNA levels [1] | % Inhib [2]
1 | ACCACACACAGTGCCCCAGA (eA*e[5mC]*e[5mC]*eA*e[5mC]*dA*d[5mC]*dA*d[5mC]*dA*dG*dT*dG*d[5mC]*d[5mC]*e[5mC]*e[5mC]*eA*eG*eA; antisense) [ISIS 145670] | 45% | 42%
2 | ACCCAGAAGGCTGTGCTCCA (eA*e[5mC]*e[5mC]*e[5mC]*eA*dG*dA*dA*dG*dG*d[5mC]*dT*dG*dT*dG*e[5mC]*eT*e[5mC]*e[5mC]*eA; antisense) [ISIS 145702] | 45% | 74%
3 | AGGAAGAACTGGCCCCAGTC (eA*eG*eG*eA*eA*dG*dA*dA*d[5mC]*dT*dG*dG*d[5mC]*d[5mC]*d[5mC]*e[5mC]*eA*eG*eT*e[5mC]; antisense) [ISIS 145685] | 43% | 71%
4 | CAGGTTCATGCTGGTTGACA (e[5mC]*eA*eG*eG*eT*dT*d[5mC]*dA*dT*dG*d[5mC]*dT*dG*dG*dT*eT*eG*eA*e[5mC]*eA; antisense) [ISIS 145664] | 50% | 66%
5 | CGCCAGCTGTAGCTCTGGGC (e[5mC]*eG*e[5mC]*e[5mC]*eA*dG*d[5mC]*dT*dG*dT*dA*dG*d[5mC]*dT*d[5mC]*eT*eG*eG*eG*e[5mC]; antisense) [ISIS 145667] | 49% | 54%
6 | CTGCGCCAGCTGTAGCTCTG (e[5mC]*eT*eG*e[5mC]*eG*d[5mC]*d[5mC]*dA*dG*d[5mC]*dT*dG*dT*dA*dG*e[5mC]*eT*e[5mC]*eT*eG; antisense) [ISIS 145668] | 39% | 47%
7 | GCCCACCAAGTGCCAAACTG (eG*e[5mC]*e[5mC]*e[5mC]*eA*d[5mC]*d[5mC]*dA*dA*dG*dT*dG*d[5mC]*d[5mC]*dA*eA*eA*e[5mC]*eT*eG; antisense) [ISIS 145662] | 19% | 52%
8 | GGAGACAACCACACACAGTG (eG*eG*eA*eG*eA*d[5mC]*dA*dA*d[5mC]*d[5mC]*dA*d[5mC]*dA*d[5mC]*dA*e[5mC]*eA*eG*eT*eG; antisense) [ISIS 145671] | 25% | 39%
9 | GGATAAGGAAGAACTGGCCC (eG*eG*eA*eT*eA*dA*dG*dG*dA*dA*dG*dA*dA*d[5mC]*dT*eG*eG*e[5mC]*e[5mC]*e[5mC]; antisense) [ISIS 145686] | 26% | 32%
10 | TCTCCTCCTTCAAGGAGCCC (eT*e[5mC]*eT*e[5mC]*e[5mC]*dT*d[5mC]*d[5mC]*dT*dT*d[5mC]*dA*dA*dG*dG*eA*eG*e[5mC]*e[5mC]*e[5mC]; antisense) [ISIS 359526] | – | 54%
11 | TCTCCTGGATAAGGAAGAAC (eT*e[5mC]*eT*e[5mC]*e[5mC]*dT*dG*dG*dA*dT*dA*dA*dG*dG*dA*eA*eG*eA*eA*e[5mC]; antisense) [ISIS 359529] | – | 15%
12 | TGTAGTGCTTGGCAATGGTG (eT*eG*eT*eA*eG*dT*dG*d[5mC]*dT*dT*dG*dG*d[5mC]*dA*dA*eT*eG*eG*eT*eG; antisense) [ISIS 359544] | – | 7%
13 | TTACCCGGAAGAGGTACATG (eT*eT*eA*e[5mC]*e[5mC]*d[5mC]*dG*dG*dA*dA*dG*dA*dG*dG*dT*eA*e[5mC]*eA*eT*eG; antisense) [ISIS 359531] | – | 62%
14 | TTCAGCCACCCAGAAGGCTG (eT*eT*e[5mC]*eA*eG*d[5mC]*d[5mC]*dA*d[5mC]*d[5mC]*d[5mC]*dA*dG*dA*dA*eG*eG*e[5mC]*eT*eG; antisense) [ISIS 359546] | – | 39%
